# Experimental data as given in article PMC9138568 (2022).
# System: G3-OTAapt1-FAM (F1) (DNA, aptamer) GGGGATCGGGTGTGGGTGGCGTAAAGGGAGCATC
# Assay: fluorescence quenching (FAM, guanine PIET)
# Details: Na+ 120 mM, Ca2+ 3 mM; 10 mM Tris-HCl pH 8.4, room temperature; 20 nM F1; calibration curve only
structure (smiles),measurement,value
C[C@@H]1Cc2c(Cl)cc(C(=O)N[C@@H](Cc3ccccc3)C(=O)O)c(O)c2C(=O)O1,binding,yes
